Experimental findings from patent US5484803A, “Transcutaneous in vivo activation of photosensitive agents in blood” (priority 1995, dated 1996) are described below.

The test system of the test is P815 cells. As to the kind of experiment: Surviving clonogenic P815 cells in mouse blood. As to conditions: average of 3 mice/group. The class given is in vivo, DBA/2 mice. The method, then:
Male mature DBA/2 and Balb/c mice were injected intravenously with P815 and L1210 cells, respectively, preincubated for 1 hour with BPD (liposomal) at 100 ng/ml. Immediately before animal injection, an additional 2 μg of BPD was added to the syringes containing cells. […] One group of mice (shaved and depilated) was exposed immediately to red light (600-900 nm) in the light box for 1.5 hours (162 J/cm^2); the other group was kept in the dark as the control.
Immediately after exposure to light, blood samples were obtained by a heart puncture under halothane anesthesia. The concentration of BPD in plasma of light-exposed and control mice was determined by fluorescence. The number of clonogenic tumor cells in mouse blood was determined by culturing blood samples in culture medium supplemented with 10% bovine serum, using a limiting dilution assay protocol.

“benzoprophyrin derivative monoacid ring A [BPD]”: the “Surviving cells in blood” value by setting is: (Dark control) 50 P815 cells/2 ml blood/mouse; (Light exposed (162 J/cm^2)) 8 P815 cells/2 ml blood/mouse.
